Conditions: 263.41 K, Fluid (supercritical or subcritical phases), Vibrating tube method

FC(F)=C(F)C(F)(F)F [hexafluoropropene]
Conditions	mass density [kg/m3]
162.7 kPa	11.79
164.3 kPa	11.92
165.5 kPa	12.02
167 kPa	12.14
168.6 kPa	12.22
170.1 kPa	12.35
171.8 kPa	12.46
173.2 kPa	12.64
174.8 kPa	12.73
176.4 kPa	12.82
177.9 kPa	13
179.4 kPa	13.09
180.9 kPa	13.22
182.4 kPa	13.34
183.9 kPa	13.46
185.4 kPa	13.58
186.9 kPa	13.66
188.4 kPa	13.77
189.9 kPa	13.87
191.3 kPa	14.01
192.8 kPa	14.11
194.2 kPa	14.27
195.7 kPa	14.37
197.1 kPa	14.48
198.5 kPa	14.63
199.9 kPa	14.76
201.3 kPa	14.81
202.7 kPa	14.96
204.1 kPa	15.01
205.5 kPa	15.14
206.9 kPa	15.26
208.3 kPa	15.38
209.6 kPa	15.49
211 kPa	15.6
212.3 kPa	15.71
213.6 kPa	15.8
214.9 kPa	15.93
216.3 kPa	16.03
217.6 kPa	16.16
218.8 kPa	16.24
220.2 kPa	16.31
220.6 kPa	16.37
221.1 kPa	16.43
221.5 kPa	16.47
222 kPa	16.48
222.4 kPa	16.53
223.2 kPa	16.59
223.6 kPa	16.63
224 kPa	16.66
224.4 kPa	16.7
225.4 kPa	16.76
226.2 kPa	16.85
226.6 kPa	16.88
227 kPa	16.94
227.9 kPa	16.98
228.6 kPa	17.03
229 kPa	17.07
229.9 kPa	17.2
230.7 kPa	17.24
231.4 kPa	17.29
231.9 kPa	17.35
232.6 kPa	17.43
233 kPa	17.48
233.4 kPa	17.55
234.2 kPa	17.65
234.9 kPa	17.92
235.5 kPa	18.45

Source: the NIST ThermoML archive (doi:10.1021/je900596d)
